Test results: patent publication US9677045B2, “Microorganisms and methods for production of 4-hydroxybutyrate, 1,4-butanediol and related compounds” (priority 2012, dated 2017)

Key:
[1] = system: Aldehyde dehydrogenase; experiment: Aldehyde dehydrogenase (ALD) assay in the reductive direction, cell extracts; details: extracts of MG1655 lacI^Q with pZA33
Method: (§1) In Vitro Enzyme Assays. To obtain crude extracts for activity assays, cells were harvested by centrifugation at 4,500 rpm (Beckman-Coulter, Allegera X-15R) for 10 min. The pellets were resuspended in 0.3 mL BugBuster (Novagen) reagent with benzonase and lysozyme, and lysis proceeded for 15 minutes at room temperature with gentle shaking. Cell-free lysate was obtained by centrifugation at 14,000 rpm (Eppendorf centrifuge 5402) for 30 min at 4° C. Cell protein in the sample was determined using the method of Bradford et al., Anal. Biochem. 72:248-254 (1976), and specific enzyme assays conducted as described below. Activities are reported in Units/mg protein, where a unit of activity is defined as the amount of enzyme required to convert 1 mmol of substrate in 1 min. at room temperature. In general, reported values are averages of at least 3 replicate assays.
(§2) Alcohol (ADH) and aldehyde (ALD) dehydrogenase was assayed in the reductive direction using a procedure adapted from several literature sources (Durre et al., FEMS Microbiol. Rev. 17:251-262 (1995); Palosaari and Rogers, J. Bacteriol. 170:2971-2976 (1988) and Welch et al., Arch. Biochem. Biophys. 273:309-318 (1989). The oxidation of NADH is followed by reading absorbance at 340 nm every four seconds for a total of 240 seconds at room temperature. The reductive assays were performed in 100 mM MOPS (adjusted to pH 7.5 with KOH), 0.4 mM NADH, and from 1 to 50 μl of cell extract. The reaction is started by adding the following reagents: 100 μl of 100 mM acetaldehyde or butyraldehyde for ADH, or 100 μl of 1 mM acetyl-CoA or butyryl-CoA for ALD. The Spectrophotometer is quickly blanked and then the kinetic read is started. The resulting slope of the reduction in absorbance at 340 nm per minute, along with the molar extinction coefficient of NAD(P)H at 340 nM (6000) and the protein concentration of the extract, can be used to determine the specific activity.
(§3) Gene candidates for the 4-HB to BDO conversion pathway were next tested for activity when expressed in the E. coli host MG1655 lacI^Q. Recombinant strains containing each gene candidate expressed on pZA33 were grown in the presence of 0.25 mM IPTG for four hours at 37° C. to fully induce expression of the enzyme. Four hours after induction, cells were harvested and assayed for ADH and ALD activity as described above.

[2] = system: Alcohol dehydrogenase; experiment: Alcohol dehydrogenase (ADH) assay in the reductive direction, cell extracts; details: extracts of MG1655 lacI^Q with pZA33
Method: as §1, §2, §3

[3] = target: homoserine kinase (Escherichia coli, UniProt P00547); details: cited from earlier work; for % kcat: relative to L-homoserine
[4] = system: aminotransferase from Leishmania mexicana; details: activity considered 100% on tyrosine; enzyme expressed in E. coli; cited from earlier work
[5] = system: 4-HB to BDO conversion pathway; experiment: Production of BDO from 10 mM 4-HB in recombinant E. coli strains
Method: For the BDO production experiments, cat2 from Porphyromonas gingivalis W83 (gene 0034) was included on pZA33 for the conversion of 4-HB to 4-HB-CoA, while the candidate dehydrogenase genes were expressed on pZE13. The host strain was MG1655 lacI^Q. Along with the alcohol and aldehyde dehydrogenase candidates, we also tested the ability of CoA-dependent succinic semialdehyde dehydrogenases (sucD) to function in this step, due to the similarity of the substrates. Cells were grown to an OD of about 0.5 in LB medium supplemented with 10 mM 4-HB, induced with 1 mM IPTG, and culture broth samples taken after 24 hours and analyzed for BDO as described below.
Finally, the construct was tested for participation in the conversion of 4-HB to BDO. Host strains were transformed with the pZA33-0020-0021 construct described and pZE13-0002, and compared to use of cat2 in BDO production using the aerobic procedure used above in FIG. 5.

Chain of homoserine kinase (P00547 whole entry): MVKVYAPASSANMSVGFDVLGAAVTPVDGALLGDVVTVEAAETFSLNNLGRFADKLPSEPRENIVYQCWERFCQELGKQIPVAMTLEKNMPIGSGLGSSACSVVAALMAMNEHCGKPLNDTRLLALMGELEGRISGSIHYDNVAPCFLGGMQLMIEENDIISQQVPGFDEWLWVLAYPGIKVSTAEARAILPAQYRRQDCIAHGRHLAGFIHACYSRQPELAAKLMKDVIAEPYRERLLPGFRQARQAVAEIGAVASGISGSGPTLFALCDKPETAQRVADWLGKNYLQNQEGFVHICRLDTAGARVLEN

Molecule: 0011: Gene ID 0011: adhE, E. coli, Aldehyde/alcohol dehydrogenase [Sample 0011]
- Aldehyde dehydrogenase activity ([1]; Substrate Acetyl-CoA): 0.0095 μmol min^−1 mg cell protein^−1
- Aldehyde dehydrogenase activity ([1]; Substrate Butyryl-CoA): 0.0069 μmol min^−1 mg cell protein^−1
- Alcohol dehydrogenase activity ([2]; Substrate Acetaldehyde): 0.0093 μmol min^−1 mg cell protein^−1
- Alcohol dehydrogenase activity ([2]; Substrate Butyraldehyde): 0.0265 μmol min^−1 mg cell protein^−1

Molecule: N[C@H](CCO)C(=O)O [D-homoserine]
- kcat [3]: 8.3 ± 1.1
- % kcat [3]: 32%

Molecule: N[C@H](CO)CCO [L-2-amino-1,4-butanediol]
- kcat [3]: 2.0 ± 0.5
- % kcat [3]: 7.9%

Molecule: N[C@@H](CCCO)C(=O)O [L-2-amino-5-hydroxyvalerate]
- kcat [3]: 2.5 ± 0.4
- % kcat [3]: 9.9%

Molecule: N[C@@H](CC=O)C(=O)O [L-aspartate β-semialdehyde]
- kcat [3]: 2.1 ± 0.1
- % kcat [3]: 8.2%

Molecule: CCOC(=O)[C@@H](N)CCO [L-homoserine ethyl ester]
- kcat [3]: 13.6 ± 0.8
- % kcat [3]: 74%

Molecule: CC(C)COC(=O)[C@@H](N)CCO [L-homoserine isobutyl ester]
- kcat [3]: 16.4 ± 0.8
- % kcat [3]: 84%

Molecule: CC(C)OC(=O)[C@@H](N)CCO [L-homoserine isopropyl ester]
- kcat [3]: 13.6 ± 1.4
- % kcat [3]: 74%

Molecule: COC(=O)[C@@H](N)CCO [L-homoserine methyl ester]
- kcat [3]: 14.7 ± 2.6
- % kcat [3]: 80%

Molecule: CCCOC(=O)[C@@H](N)CCO [L-homoserine n-propyl ester]
- kcat [3]: 14.0 ± 0.4
- % kcat [3]: 76%

Molecule: N[C@@H](CCO)C(=O)O [L-homoserine]
- kcat [3]: 18.3 ± 0.1
- % kcat [3]: 100%

Molecule: CCCCOC(=O)[C@@H](N)CCO [L-homserine n-butyl ester]
- kcat [3]: 29.1 ± 1.2
- % kcat [3]: 160%

Molecule: CC(C)C[C@H](N)C(=O)O [leucine]
- activity relative to tyrosine [4]: 25%

Molecule: CSCC[C@H](N)C(=O)O [methionine]
- activity relative to tyrosine [4]: 25%

Molecule: N[C@@H](Cc1ccccc1)C(=O)O [phenylalanine]
- activity relative to tyrosine [4]: 90%

Molecule: N[C@@H](Cc1c[nH]c2ccccc12)C(=O)O [tryptophan]
- activity relative to tyrosine [4]: 85%

Molecule: N[C@@H](Cc1ccc(O)cc1)C(=O)O [tyrosine]
- activity relative to tyrosine [4]: 100%

B1: 0002: Gene ID 0002: adhE, Clostridium acetobutylicum ATCC 824, Aldehyde/alcohol dehydrogenase (protein, UniProt P33744 1-862, looked up)
Aldehyde-alcohol dehydrogenase: MKVTTVKELDEKLKVIKEAQKKFSCYSQEMVDEIFRNAAMAAIDARIELAKAAVLETGMGLVEDKVIKNHFAGEYIYNKYKDEKTCGIIERNEPYGITKIAEPIGVVAAIIPVTNPTSTTIFKSLISLKTRNGIFFSPHPRAKKSTILAAKTILDAAVKSGAPENIIGWIDEPSIELTQYLMQKADITLATGGPSLVKSAYSSGKPAIGVGPGNTPVIIDESAHIKMAVSSIILSKTYDNGVICASEQSVIVLKSIYNKVKDEFQERGAYIIKKNELDKVREVIFKDGSVNPKIVGQSAYTIAAMAGIKVPKTTRILIGEVTSLGEEEPFAHEKLSPVLAMYEADNFDDALKKAVTLINLGGLGHTSGIYADEIKARDKIDRFSSAMKTVRTFVNIPTSQGASGDLYNFRIPPSFTLGCGFWGGNSVSENVGPKHLLNIKTVAERRENMLWFRVPHKVYFKFGCLQFALKDLKDLKKKRAFIVTDSDPYNLNYVDSIIKILEHLDIDFKVFNKVGREADLKTIKKATEEMSSFMPDTIIALGGTPEMSSAKLMWVLYEHPEVKFEDLAIKFMDIRKRIYTFPKLGKKAMLVAITTSAGSGSEVTPFALVTDNNTGNKYMLADYEMTPNMAIVDAELMMKMPKGLTAYSGIDALVNSIEAYTSVYASEYTNGLALEAIRLIFKYLPEAYKNGRTNEKAREKMAHASTMAGMASANAFLGLCHSMAIKLSSEHNIPSGIANALLIEEVIKFNAVDNPVKQAPCPQYKYPNTIFRYARIADYIKLGGNTDEEKVDLLINKIHELKKALNIPTSIKDAGVLEENFYSSLDRISELALDDQCTGANPRFPLTSEIKEMYINCFKKQP
- Aldehyde dehydrogenase activity ([1]; Substrate Acetyl-CoA): 0.0046 μmol min^−1 mg cell protein^−1
- Aldehyde dehydrogenase activity ([1]; Substrate Butyryl-CoA): 0.0076 μmol min^−1 mg cell protein^−1
- BDO/OD ([5]; Aerobic): 15.2
- BDO ([5]; Aerobic, 10 mM 4-HB, 24 hours, cat2 (0034) on pZA33): 138.3 µM
- BDO/OD ([5]; Anaerobic): 40.5
- BDO ([5]; Anaerobic, 10 mM 4-HB, 24 hours, cat2 (0034) on pZA33): 54.7 µM
- BDO/OD ([5]; Microaerobic): 8.73
- BDO ([5]; Microaerobic, 10 mM 4-HB, 24 hours, cat2 (0034) on pZA33): 48.2 µM
- Alcohol dehydrogenase activity ([2]; Substrate Acetaldehyde): 0.0247 μmol min^−1 mg cell protein^−1
- Alcohol dehydrogenase activity ([2]; Substrate Butyraldehyde): 0.0264 μmol min^−1 mg cell protein^−1

B2: 0026: Gene ID 0026: bdhA, Clostridium acetobutylicum ATCC 824, Butanol dehydrogenase (protein, UniProt Q04944 1-389, looked up)
NADH-dependent butanol …: MLSFDYSIPTKVFFGKGKIDVIGEEIKKYGSRVLIVYGGGSIKRNGIYDRATAILKENNIAFYELSGVEPNPRITTVKKGIEICRENNVDLVLAIGGGSAIDCSKVIAAGVYYDGDTWDMVKDPSKITKVLPIASILTLSATGSEMDQIAVISNMETNEKLGVGHDDMRPKFSVLDPTYTFTVPKNQTAAGTADIMSHTFESYFSGVEGAYVQDGIAEAILRTCIKYGKIAMEKTDDYEARANLMWASSLAINGLLSLGKDRKWSCHPMEHELSAYYDITHGVGLAILTPNWMEYILNDDTLHKFVSYGINVWGIDKNKDNYEIAREAIKNTREYFNSLGIPSKLREVGIGKDKLELMAKQAVRNSGGTIGSLRPINAEDVLEIFKKSY
- Aldehyde dehydrogenase activity ([1]; Substrate Acetyl-CoA): 0.0005 μmol min^−1 mg cell protein^−1
- Aldehyde dehydrogenase activity ([1]; Substrate Butyryl-CoA): 0 μmol min^−1 mg cell protein^−1
- Alcohol dehydrogenase activity ([2]; Substrate Acetaldehyde): 0.0008 μmol min^−1 mg cell protein^−1
- Alcohol dehydrogenase activity ([2]; Substrate Butyraldehyde): 0.0024 μmol min^−1 mg cell protein^−1

B3: 0034: Gene ID 0034: cat2, Porphyromonas gingivalis W83, 4-hydroxybutyrate coenzyme A transferase (protein, listed as Porphyromonas gingivalis)
chain: MKDVLAEYASRIVSAEEAVKHIKNGERVALSHAAGVPQSCVDALVQQADLFQNVEIYHMLCLGEGKYMAPEMAPHFRHITNFVGGNSRKAVEENRADFIPVFFYEVPSMIRKDILHIDVAIVQLSMPDENGYCSFGVSCDYSKPAAESAHLVIGEINRQMPYVHGDNLIHISKLDYIVMADYPIYSLAKPKIGEVEEAIGRNCAELIEDGATLQLGIGAIPDAALLFLKDKKDLGIHTEMFSDGVVELVRSGVITGKKKTLHPGKMVATFLMGSEDVYHFIDKNPDVELYPVDYVNDPRVIAQNDNMVSINSCIEIDLMGQVVSECIGSKQFSGTGGQVDYVRGAAWSKNGKSIMAIPSTAKNGTASRIVPIIAEGAAVTTLRNEVDYVVTEYGIAQLKGKSLRQRAEALIAIAHPDFREELTKHLRKRFG
- BDO/OD ([5]; Host MG1655 lacI^Q): 0.042
- BDO ([5]; Host MG1655 lacI^Q, adhE2 in pZE13, aerobic procedure): 0.827 µM
- BDO/OD ([5]; Host MG1655 ΔadhE lacI^Q): 0.166
- BDO ([5]; Host MG1655 ΔadhE lacI^Q, adhE2 in pZE13, aerobic procedure): 2.084 µM

B4: 0013: Gene ID 0013: bdhB, Clostridium acetobutylicum ATCC 824, Butanol dehydrogenase II (protein, UniProt Q04945 1-390, looked up)
NADH-dependent butanol …: MVDFEYSIPTRIFFGKDKINVLGRELKKYGSKVLIVYGGGSIKRNGIYDKAVSILEKNSIKFYELAGVEPNPRVTTVEKGVKICRENGVEVVLAIGGGSAIDCAKVIAAACEYDGNPWDIVLDGSKIKRVLPIASILTIAATGSEMDTWAVINNMDTNEKLIAAHPDMAPKFSILDPTYTYTVPTNQTAAGTADIMSHIFEVYFSNTKTAYLQDRMAEALLRTCIKYGGIALEKPDDYEARANLMWASSLAINGLLTYGKDTNWSVHLMEHELSAYYDITHGVGLAILTPNWMEYILNNDTVYKFVEYGVNVWGIDKEKNHYDIAHQAIQKTRDYFVNVLGLPSRLRDVGIEEEKLDIMAKESVKLTGGTIGNLRPVNASEVLQIFKKSV
- Alcohol dehydrogenase activity ([2]; Substrate Acetaldehyde): 0.0142 μmol min^−1 mg cell protein^−1
- Alcohol dehydrogenase activity ([2]; Substrate Butyraldehyde): 0.0130 μmol min^−1 mg cell protein^−1
